Assay results taken from US12466801B2, “Cannabichromene derivatives and use thereof” (Remedy Processors LLC, priority 2023, dated 2025).

Legend:
cancer cell lines = assay: National Cancer Institute (NCI) 60 cell cancer screen, growth inhibition; type: cell-based; details: multiple dose study (dose-response); leukemia, non-small cell, colon, CNS, melanoma, ovarian, renal, prostate, breast cancer cell lines (FIGS. 3-11)
Description: (§1) A multiple dose study (dose-response) was then performed using Compound 8 across multiple cancer cell lines. […] A multiple dose study (dose-response) was then performed in PC3 cells using Compound 9. […] (See FIG. 2) The data was generated according to the National Cancer Institute (NCI) 60 cell cancer screen.

[1] = system: prostate cancer PC3 cells; assay: NCI 60 cell cancer screen, multiple dose study (dose-response) in PC3 cells; type: cell-based; details: FIG. 2
Description: FIG. 2 provides data from a multiple dose study (dose-response) performed in prostate cancer PC3 cells.
as §1

[2] = target: dopamine transporter (DAT) (Homo sapiens, UniProt Q01959); assay: CNS receptor testing, affinity at dopamine transporter; type: binding; details: for affinity and selectivity for the dopamine transporter (DAT): result in words
Description: The compounds were tested for affinity at various central nervous system receptors.

Sequence of dopamine transporter (DAT) (Q01959 whole entry, species assumed): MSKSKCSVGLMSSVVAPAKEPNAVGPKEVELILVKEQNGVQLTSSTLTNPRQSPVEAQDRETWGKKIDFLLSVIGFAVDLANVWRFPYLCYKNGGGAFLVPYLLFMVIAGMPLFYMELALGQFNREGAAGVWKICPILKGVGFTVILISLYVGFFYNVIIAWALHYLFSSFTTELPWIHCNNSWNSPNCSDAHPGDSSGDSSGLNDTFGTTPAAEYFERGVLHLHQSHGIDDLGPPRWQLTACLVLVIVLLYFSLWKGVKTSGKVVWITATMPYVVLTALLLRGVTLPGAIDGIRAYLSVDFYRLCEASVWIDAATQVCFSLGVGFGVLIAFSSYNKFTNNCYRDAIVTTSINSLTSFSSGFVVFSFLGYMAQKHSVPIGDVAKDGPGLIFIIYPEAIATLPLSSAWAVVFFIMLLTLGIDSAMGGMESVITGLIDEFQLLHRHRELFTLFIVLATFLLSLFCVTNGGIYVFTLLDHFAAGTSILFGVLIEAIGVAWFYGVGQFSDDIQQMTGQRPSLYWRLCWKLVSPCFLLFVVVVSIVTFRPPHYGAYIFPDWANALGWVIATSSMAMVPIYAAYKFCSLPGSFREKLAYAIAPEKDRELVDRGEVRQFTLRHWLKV

Row | Compound | growth inhibition across multiple cancer cell lines (cancer cell lines) | growth inhibition of PC3 cells [1] | Ki [2] | affinity and selectivity for the dopamine transporter (DAT) [2]
1 | CCCCCc1cc(NC(=O)C(Cl)Cl)c2c(c1)OC(C)(CCC=C(C)C)C=C2 (stereo not drawn) [Compound 8] | provided growth inhibition | – | – | –
2 | CCCCCc1cc(NC(=O)CC(F)(F)F)c2c(c1)OC(C)(CCC=C(C)C)C=C2 (stereo not drawn) [Compound 9] | – | inhibits the growth | – | –
3 | CCCCCc1cc(NC(=O)C(F)(F)Br)c2c(c1)OC(C)(CCC=C(C)C)C=C2 (stereo not drawn) [Compound 10] | – | – | 85 nM | good affinity and selectivity
4 | CCCCCc1cc(NC(=O)CCCC)c2c(c1)OC(C)(CCC=C(C)C)C=C2 (stereo not drawn) [Compound 12] | – | – | 107 nM | good affinity and selectivity
